The target of one assay is T1, rat IBAT (Rattus norvegicus, UniProt Q62633).
T1 sequence (Q62633 1-348): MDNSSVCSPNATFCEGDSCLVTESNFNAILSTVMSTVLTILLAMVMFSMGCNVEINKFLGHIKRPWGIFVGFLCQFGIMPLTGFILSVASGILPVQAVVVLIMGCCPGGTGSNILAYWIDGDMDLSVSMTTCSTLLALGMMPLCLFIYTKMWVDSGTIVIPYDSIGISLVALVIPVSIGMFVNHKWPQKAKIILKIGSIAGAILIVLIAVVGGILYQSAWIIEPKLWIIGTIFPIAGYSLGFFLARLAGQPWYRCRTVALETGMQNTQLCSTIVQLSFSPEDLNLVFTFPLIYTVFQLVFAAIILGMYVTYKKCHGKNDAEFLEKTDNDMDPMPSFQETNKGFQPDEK
The experiment in a line: In vitro assay using Cos 7 cells, transiently expressed rat IBAT. The conditions noted are these: [3H]-taurocholate 8 μM uptake, 37° C., 60 minutes. In kind it is cell-based. The procedure:
In the present Test Example, an in vitro assay of compounds using Cos 7 cells as to inhibitory activity on transiently expressed human IBAT or rat IBAT transporter was performed according to the method described in Am. J. Physiol., 274, G157-169.
That is, […] cells/well of Cos 7 cells were seeded in a 24-well plate, and after one day, the cells were transfected with 0.3 μg/well of cDNA of human IBAT or rat IBAT using FuGENE6 (supplied from Roche). After culturing for one day after the transfection, the cells were washed once with the assay buffer, i.e., Hanks buffer containing 25 mM glucose and 10 mM HEPES (pH 7.4). The assay buffer was then replaced with the assay buffer containing the test compound. [^3H]-Taurocholate at a final concentration of 8 μM was added thereto and incubated at 37° C. for 60 minutes so that [^3H]-taurocholate was taken into Cos 7 cells by the action of human IBAT or rat IBAT. The cells were washed twice with the assay buffer containing 1 mM taurocholate, and subsequently lysed with 0.2 M NaOH to stop the reaction. The cell lysate was added to 4 mL of liquid scintillation cocktail, which was then thoroughly vortexed. Then the radioactivity was measured using the liquid scintillation counter.

Assay [1] deals with rats fed cholesterol food. The experiment in a line: Model for hepatic disorder associated with cholestasis (hepatic cell apoptosis): mitotic cells in liver. In kind it is in vivo, rat. To be noted: oral twice per day, 4 days, total in 10 sites of 200 μm×200 μm, control group 50 ± 13. An excerpt:
In the present test example, a model for the hepatic disorder associated with cholestasis was employed with reference to apoptosis induction in hepatic cells in a hypercholesterolemia model described in Am. J. Physiol., 1995, 268, G613-G621.
That is, the food containing 0.4% cholesterol and 0.5% bile acid was given to SD (IGS) strain male rats at 7 to 9 weeks of age for 4 days, and the test compound was orally administered forcibly twice per day everyday from the starting date of cholesterol food feeding (each n=8). As a control, another group (n=8) were merely fed cholesterol food. The blood was exsanguinated from abdominal aorta 3 hours after the drug administration on the final day of the experiment. Then the liver was immediately removed and fixed in 10% neutral buffered formalin solution (brand name: FA-F96, supplied from Kokusan Chemical Co. Ltd.). After fixing, the sample was dehydrated and embedded using a closed type automatic embedding apparatus (brand name: ETP-180B, supplied from Sakura Finetek Japan). […] A total number of mitotic cells in different 10 sites in the range of 200 μm×200 μm on each section was counted.

For a further assay, the system named is ALANINE TRANSPORTER
The experiment in a line: In vitro assay using Cos 7 cells for Na+ dependent amino acid transporter ([3H]-alanine uptake). In kind it is cell-based. To be noted: [3H]-alanine 8 μM, 37° C., 60 minutes, read-out: IC50 (μM) AGAINST ALANINE TRANSPORTER
As to the method: In the present Test Example, in vitro assays of the compounds using Cos 7 cells for various transporters were performed according to the description in JP-H10-505830 A.
That is, 2.5×10^5 cells/well of Cos 7 cells were seeded in a 24-well plate, and after two days, the cells were washed once with the assay buffer, i.e., Hanks buffer containing 25 mM glucose and 10 mM HEPES (pH 7.4). The assay buffer was then replaced with the assay buffer containing the test compound. [^3H]-alanine (brand name: NET-348, Daiich Pure chemical) or [^3H]-leucine (brand name: NET-460, Daiich Pure chemical) or [^3H]-phenylalanine (brand name: MT903, MORAVEK) or [^3H]-methionine (brand name: MT862, MORAVEK) or [^3H]-lysine (brand name: MT909, MORAVEK) or [^3H]-choline (brand name: TRK593, Amersham Biosciences) at a final concentration of 8 μM was added thereto and incubated at 37° C. for 60 minutes so that they were taken into Cos 7 cells. […] Then the radioactivity was measured using the liquid scintillation counter. The inhibitory rate (%) was calculated from the radioactivity in the control in which no test compound had been used and the radioactivity when the test compound at the certain concentration had been used, and the concentration of the compound which inhibited 50% of the transporter activity was calculated.

A further assay has as its system rats dosed bile acid. The experiment in a line: Model for hepatic disorder associated with cholestasis, Protocol B (bile acid without partial ligation): AST, ALT, ALP. In kind it is in vivo, rat. The conditions noted are these: Table 13, Protocol B, 0.1 mg/kg oral twice per day for 3.5 days, N=8, mean±standard error. An excerpt: In the present Test Example, a model for the hepatic disorder caused by partial ligation of the bile duct was employed with reference to Kanno's method (Liver, 43, Suppl(1):A126, 2002).
That is, to the SD (IGS) strain male rats at 7 to 10 weeks of age, the partial ligation of the bile duct was given with opening the abdominal cavity under anesthesia with pentobarbital. Before the operation, the blood was collected from femoral vein, in order to obtain the value before the administration. From the day after the operation, 200 mg/kg of bile acid and the test compound were orally administered forcibly twice per day for 3.5 days (Protocol A). Without giving the partial ligation of the bile duct, 200 mg/kg of bile acid and the test compound were also orally administered forcibly twice per day for 3.5 days (Protocol B). In both cases, the test compound was dissolved or suspended in distilled water or an aqueous solution of 1% HCO 60 (Nippon Chemicals). To the control group, saline was administered. As comparative examples, 25 mg/kg of cholestyramine (supplied from Sigma) or 50 mg/kg of ursodeoxycholic acid (supplied from Mitsubishi Pharma) was administered. For considering the effect of the operation, sham operation (sham group) was performed in some cases. The blood was collected from the abdominal aorta 6 hours after the drug administration on the final day of the experiment. AST (GOT), ALT (GPT) and ALP in the blood were measured using measurement kits (GOT II-HA Test Wako, GPT II-HA Test Wako and Alkaline Phosphor HA Test Wako, all were supplied from Wako Pure Chemical Industries) and using an automatic analyzer (Nitech ANALAYZER SUPER Z818).

At rat IBAT, `CCCCC1(CCCC)CS(=O)(=O)c2ccc(N(C)C)cc2C(c2cccc(NC(=S)Nc3ccc(C[N+](C)(C)Cc4ccccc4)cc3)c2)N1.[Br-]` (stereo not shown) [EXAMPLE 3440] gave an IC50 of 0.01 µM.

For the compound `CCCCC1(CCCC)CS(=O)(=O)c2ccc(N(C)C)cc2C(c2cccc(NC(=S)CCCCC[N+]34CCC(CC3)CC4)c2)N1.[Br-]` (stereo not shown) [EXAMPLE 1, 1-{5-[3-(3,3-dibutyl-7-dimethylamino-1,1-dioxo-2,3,4,5-tetrahydro-1,4-benzothiazepine-5-yl)phenylthiocarbamoyl]pentyl}-1-azoniabicyclo[2.2.2]octane bromide], the “MITOTIC CELLS IN LIVER (AVERAGE ± STANDARD ERROR, n = 8)” value is 36 ± 13 in assay [1] (0.1 mg/kg per administration) and 28 ± 7 in assay [1] (1 mg/kg per administration). The IC50 in the assay on ALANINE TRANSPORTER came to 33 µM. The ALT in the assay on rats dosed bile acid (control group 82 ± 17) is on record as 53 ± 6 IU/L. In the assay with rats dosed bile acid (control group 157 ± 35), this compound came in with an AST of 100 ± 2 IU/L. For the same compound, the ALP in the assay with rats dosed bile acid (control group 593 ± 77) is given as 453 ± 50 IU/L.

Source of the values: US20120015925A1, “NOVEL BENZOTHIAZEPINE AND BENZOTHIEPINE COMPOUNDS” (ASAHI KASEI PHARMA CORPORATION, priority 2004, published 2012).
